Patent publication US12318373B2, “Methods of treating gastrointestinal stromal tumors” (Deciphera Pharmaceuticals, LLC, priority 2019, dated 2025)

Test system: GIST
Test: Example 4: phase 1 study, efficacy by line of therapy at 150 mg QD
Type: in vivo, human
Description: Efficacy and safety results from the escalation and expansion phases of a phase 1 study for patients with GIST treated at ripretinib 150 mg QD as the starting dose in 28-day cycles are presented. Local, investigator-assessed Response Evaluation Criteria in Solid Tumors (RECIST 1.1) response assessments were performed every 2 cycles, and patients in the expansion cohorts who progressed per RECIST 1.1 were allowed to dose escalate to 150 mg BID.
142 patients with GIST in the escalation and expansion phases were treated at 150 mg QD dose. Number of patients by line of therapy were as follows: 31 2nd line, 28 3rd line, and 83≥4th line patients. 135 patients (95.1%) had KIT-mutant GIST, and 7 patients (4.9%) had PDGFRA-mutant GIST.
For example, the confirmed-only complete response (CR), partial response (PR), stable disease, and progressive disease are presented in Table 4. The objective response rate data in Table 4 relates to the proportion of patients with CR+PR. The median PFS data in Table 4 refers to progression-free survival per investigator assessment, by line of therapy.

CCn1c(=O)c(-c2cc(NC(=O)Nc3ccccc3)c(F)cc2Br)cc2cnc(NC)cc21 [ripretinib]
Duration of response, Median (150 mg QD, 2nd Line): 80 weeks | Best response (confirmed only): PR, % (150 mg QD, 2nd Line (n = 31)): (19.4) % | Best response (confirmed only): Progressive disease, % (150 mg QD, 2nd Line (n = 31)): (12.9) % | Best response (confirmed only): Stable disease, % (150 mg QD, 2nd Line (n = 31)): (67.7) % | PFS, Median (150 mg QD, 2nd Line (n = 31), investigator assessment): 46.4 weeks | Duration of response: Number of events (150 mg QD, 2nd Line, n = 6 responders): 3 | Best response (confirmed only): PR, % (150 mg QD, 3rd Line (n = 28)): (14.3) % | Best response (confirmed only): Progressive disease, % (150 mg QD, 3rd Line (n = 28)): (21.4) % | Best response (confirmed only): Stable disease, % (150 mg QD, 3rd Line (n = 28)): (64.3) % | PFS, Median (150 mg QD, 3rd Line (n = 28), investigator assessment): 36.3 weeks | Duration of response: Number of events (150 mg QD, 3rd Line, n = 4 responders): 1 | Duration of response, Median (150 mg QD, ≥4th Line): 76.1 weeks | Best response (confirmed only): No response assessment, % (150 mg QD, ≥4th Line (n = 83)): (6.0) % | Best response (confirmed only): Not evaluable, % (150 mg QD, ≥4th Line (n = 83)): (1.2) % | Best response (confirmed only): PR, % (150 mg QD, ≥4th Line (n = 83)): (7.2) % | Best response (confirmed only): Progressive disease, % (150 mg QD, ≥4th Line (n = 83)): (26.5) % | Best response (confirmed only): Stable disease, % (150 mg QD, ≥4th Line (n = 83)): (59.0) % | PFS, Median (150 mg QD, ≥4th Line (n = 83), investigator assessment): 23.9 weeks | Duration of response: Number of events (150 mg QD, ≥4th Line, n = 6 responders): 3 | PFS of second and third-line patients with Exons 9, 11, 13, or 17 KIT mutations (FIG. 27): comparable PFS | Clinical benefit after dose escalation to 150 mg BID (PFS1 vs PFS2) (regardless of line of therapy, investigator assessment, FIGS. 25A, 25B): additional clinical benefit
